# In ChEMBL document CHEMBL1759900, “Inhibition of nitric oxide production in lipopolysaccharide-stimulated RAW264.7 macrophage cells by lignans isolated from Euonymus alatus leaves and twigs” (Bioorg Med Chem Lett, 2011):
# Tested on: RAW264.7
# Assay: Inhibition of LPS-induced nitric oxide production in mouse RAW264.7 cells preincubated with compound for 1 hr before exposure to LPS measured after 24 hrs by Griess reaction method
# Format: functional, cell-based
row,SMILES,IC50
1,COc1cc([C@@H](O)[C@@H](CO)Oc2ccc(CCCO)cc2OC)ccc1O,63.4 µM
2,COc1cc([C@@H]2c3c(cc(OC)c(O)c3OC)C[C@@H](CO)[C@@H]2CO)cc(OC)c1O,55.5 µM
3,COc1cc([C@H](O)[C@@H](CO)Oc2c(OC)cc(/C=C/CO)cc2OC)cc(OC)c1O,57.9 µM
4,COc1cc([C@H]2OC[C@H]3[C@@H]2CO[C@@H]3c2cc(OC)c(OC)c(OC)c2)cc(OC)c1O,15.8 µM
5,COc1cc([C@H]2Oc3c(OC)cc(/C=C/CO)cc3[C@@H]2CO)cc(OC)c1O,11.7 µM
6,COc1cc(C(O)C(CO)Oc2c(OC)cc(C3OCC4C(c5cc(OC)c(OC(CO)C(O)c6ccc(O)c(OC)c6)c(OC)c5)OCC34)cc2OC)ccc1O (stereo not given) [HEDYOTISOL B],> 100 µM
7,COc1cc([C@H]2OC[C@H]3[C@@H]2CO[C@@H]3c2cc(OC)c(O)c(OC)c2)cc(OC)c1O [SYRINGARESINOL],14.8 µM
8,COc1cc([C@H](O)[C@@H](CO)Oc2ccc(/C=C/CO)cc2OC)ccc1O,66.4 µM
9,COc1cc([C@@H]2Oc3c(OC)cc(/C=C/CO)cc3[C@H]2CO)ccc1O [DEHYDROCONIFERYL ALCOHOL],8.5 µM
10,COc1cc([C@@H]2Oc3c(OC)cc(/C=C/CO)cc3[C@H]2CO)cc(OC)c1O,12.8 µM
11,COc1cc([C@H](O)[C@H](CO)Oc2c(OC)cc(/C=C/CO)cc2OC)ccc1O,58.2 µM
12,COc1cc([C@@H](O)[C@H](CO)Oc2ccc(/C=C/CO)cc2OC)ccc1O,63.6 µM
13,COC(=O)[C@@H](N)CCCNC(=N)N[N+](=O)[O-] [L-NAME],48.5 µM
14,COc1cc([C@H](O)[C@H](CO)Oc2ccc(CCCO)cc2OC)ccc1O,69.2 µM
15,COc1cc([C@H]2Oc3c(OC)cc(CCCO)cc3[C@@H]2CO)ccc1O [DIHYDRODEHYDRODICONIFERY ALCOHOL],9.8 µM
16,COc1cc([C@H]2OC[C@H]3[C@@H]2CO[C@@H]3c2cc(OC)c(O[C@H](CO)[C@@H](O)c3ccc(O)c(OC)c3)c(OC)c2)ccc1O [HEDYOTOL C],21.4 µM
17,COc1cc(CC(CO)OC(CO)C(OC)c2cc(OC)c(O)c(OC)c2)ccc1O (stereo not given),41.9 µM
18,COc1cc(C(O)C(CO)Oc2c(OC)cc(C3Oc4c(OC)cc(/C=C/CO)cc4C3CO)cc2OC)ccc1O (stereo not given),21.3 µM
19,COc1cc([C@H]2Oc3c(OC)cc(/C=C/CO)cc3[C@@H]2CO)ccc1O,9.3 µM
20,"COc1cc(C(OC)C(CO)OC(CO)Cc2cc(OC)c(O)c(OC)c2)ccc1O (single isomer, unassigned; (-))",44.3 µM
